Measurements taken from patent publication US20260217767A1, “NOVEL A4B7 THIOETHER PEPTIDE DIMER ANTAGONISTS” (Protagonist Therapeutics, Inc., priority 2014, published 2026).
Where a SMILES comes first, the peptide text is derived from it.

Target: T1, rh integrin α4β7 (Homo sapiens, UniProt P13612+P26010)
T1 construct: purchased R&D Systems 5397-A30
T1 sequence (P13612 34-977 limits assumed): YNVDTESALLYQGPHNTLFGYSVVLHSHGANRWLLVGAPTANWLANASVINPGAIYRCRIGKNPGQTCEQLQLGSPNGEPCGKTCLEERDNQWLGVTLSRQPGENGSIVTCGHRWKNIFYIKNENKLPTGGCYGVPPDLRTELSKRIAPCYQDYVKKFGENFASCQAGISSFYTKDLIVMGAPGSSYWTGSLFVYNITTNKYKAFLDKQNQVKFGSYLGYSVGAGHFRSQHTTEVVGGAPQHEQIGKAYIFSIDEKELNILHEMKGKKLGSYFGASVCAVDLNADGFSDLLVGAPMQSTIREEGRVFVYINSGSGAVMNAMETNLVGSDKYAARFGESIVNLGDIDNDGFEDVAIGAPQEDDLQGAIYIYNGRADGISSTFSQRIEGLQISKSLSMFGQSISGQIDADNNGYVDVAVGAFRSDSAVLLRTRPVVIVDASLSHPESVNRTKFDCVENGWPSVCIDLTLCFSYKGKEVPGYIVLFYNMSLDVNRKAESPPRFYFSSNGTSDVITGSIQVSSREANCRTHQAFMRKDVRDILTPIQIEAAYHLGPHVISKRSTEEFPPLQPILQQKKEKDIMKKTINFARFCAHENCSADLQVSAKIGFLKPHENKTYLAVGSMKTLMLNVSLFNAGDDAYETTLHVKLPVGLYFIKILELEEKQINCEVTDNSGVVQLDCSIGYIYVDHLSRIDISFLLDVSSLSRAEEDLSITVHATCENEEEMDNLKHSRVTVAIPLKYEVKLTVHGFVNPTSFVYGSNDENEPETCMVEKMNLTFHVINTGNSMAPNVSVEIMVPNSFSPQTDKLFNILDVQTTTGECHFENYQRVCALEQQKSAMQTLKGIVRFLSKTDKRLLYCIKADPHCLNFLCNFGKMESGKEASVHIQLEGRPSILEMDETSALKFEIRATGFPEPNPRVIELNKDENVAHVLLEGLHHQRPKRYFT
T1 sequence (P26010 20-723 limits assumed): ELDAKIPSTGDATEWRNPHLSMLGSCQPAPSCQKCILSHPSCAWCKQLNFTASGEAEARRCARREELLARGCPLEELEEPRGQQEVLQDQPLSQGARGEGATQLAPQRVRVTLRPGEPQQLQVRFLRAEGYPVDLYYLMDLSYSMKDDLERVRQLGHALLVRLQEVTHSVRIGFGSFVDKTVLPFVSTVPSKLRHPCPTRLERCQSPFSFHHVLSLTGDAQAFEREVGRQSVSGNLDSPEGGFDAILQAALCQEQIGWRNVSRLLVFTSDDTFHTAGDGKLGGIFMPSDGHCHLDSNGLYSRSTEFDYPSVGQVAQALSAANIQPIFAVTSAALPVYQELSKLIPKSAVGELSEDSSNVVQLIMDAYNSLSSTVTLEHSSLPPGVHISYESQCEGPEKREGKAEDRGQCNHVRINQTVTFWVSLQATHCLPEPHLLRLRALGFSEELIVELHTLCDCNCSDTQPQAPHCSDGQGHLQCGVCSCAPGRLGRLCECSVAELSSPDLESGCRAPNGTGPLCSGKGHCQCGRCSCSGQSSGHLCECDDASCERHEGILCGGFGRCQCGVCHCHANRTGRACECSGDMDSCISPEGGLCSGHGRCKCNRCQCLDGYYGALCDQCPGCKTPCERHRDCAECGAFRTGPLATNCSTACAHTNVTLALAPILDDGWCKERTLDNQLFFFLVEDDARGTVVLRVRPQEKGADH
Test: α4β7-MAdCAM Competition ELISA
Assay type: binding
Settings: thioether monomer peptides, Table 6; read-out: ELISA A4B7
Summary of the method: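 Recombinant human α4β7 captured on nickel-coated plates, then incubated 1 h at room temperature with serially diluted peptides (final top 10 μM) and 10 nM final MAdCAM-1 in Tris pH 7.6 buffer with 1 mM MnCl2 or MgCl2. Bound MAdCAM-1 detected with anti-human IgG1-HRP and TMB, absorbance at 450 nm.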

Compound	IC50 [nM]
CC(C)C[C@@H]1NC(=O)[C@H]([C@@H](C)O)NC(=O)[C@H](CC(=O)O)NC(=O)[C@H](CO)NC(=O)[C@H](CCCNC(=N)N)N(C)C(=O)c2ccccc2CSC[C@@H](C(=O)N[C@@H](Cc2c[nH]c3ccccc23)C(=O)N[C@@H](CCC(=O)O)C(=O)N[C@H](CCCCN)C(N)=O)NC1=O [compound 55] (HELM PEPTIDE1{[meR].S.D.T.L.C.W.E.[dK].[am]}|CHEM1{[O=C(c1ccccc1C[*:2])[*:1]]}$PEPTIDE1,CHEM1,1:R1-1:R1|PEPTIDE1,CHEM1,6:R3-1:R2$$$V2.0)	< 25
CC(C)C[C@@H]1NC(=O)[C@H]([C@@H](C)O)NC(=O)[C@H](CC(=O)O)NC(=O)[C@H](CO)NC(=O)[C@H](CCCNC(=N)N)N(C)C(=O)c2ccccc2CSC(C)(C)[C@@H](C(=O)N[C@@H](Cc2cccc3ccccc23)C(=O)N[C@H](CCC(=O)O)C(=O)N(C)[C@@H](CCCCN)C(N)=O)NC1=O [compound 69] (HELM PEPTIDE1{[meR].S.D.T.L.[Pen].[O=C([C@H](Cc1cccc2ccccc12)N[*:1])[*:2]].[dE].[meK].[am]}|CHEM1{[O=C(c1ccccc1C[*:2])[*:1]]}$PEPTIDE1,CHEM1,1:R1-1:R1|PEPTIDE1,CHEM1,6:R3-1:R2$$$V2.0)	< 25
CC(=O)NCCCC[C@@H](NC(=O)[C@H](CCC(=O)O)NC(=O)[C@H](Cc1c[nH]c2ccccc12)NC(=O)[C@H]1NC(=O)[C@H](CC(C)C)NC(=O)[C@H]([C@@H](C)O)NC(=O)[C@H](CC(=O)O)NC(=O)[C@H](CO)NC(=O)[C@H](CCCNC(=N)N)N(C)C(=O)c2ccccc2CSC1(C)C)C(N)=O [compound 80] (HELM PEPTIDE1{[meR].S.D.T.L.[Pen].W.E.[dK].[am]}|PEPTIDE2{[ac]}|CHEM1{[O=C(c1ccccc1C[*:2])[*:1]]}$PEPTIDE1,PEPTIDE2,9:R3-1:R2|PEPTIDE1,CHEM1,1:R1-1:R1|PEPTIDE1,CHEM1,6:R3-1:R2$$$V2.0)	< 25
CC(=O)NCCCC[C@@H](NC(=O)[C@@H](CCC(=O)O)NC(=O)[C@H](Cc1c[nH]c2ccccc12)NC(=O)[C@H]1NC(=O)[C@H](CC(C)C)NC(=O)[C@H]([C@@H](C)O)NC(=O)[C@H](CC(=O)O)NC(=O)[C@H](CO)NC(=O)[C@H](CCCNC(=N)N)N(C)C(=O)c2ccccc2CSC1(C)C)C(N)=O [compound 81] (HELM PEPTIDE1{[meR].S.D.T.L.[Pen].W.[dE].[dK].[am]}|PEPTIDE2{[ac]}|CHEM1{[O=C(c1ccccc1C[*:2])[*:1]]}$PEPTIDE1,PEPTIDE2,9:R3-1:R2|PEPTIDE1,CHEM1,1:R1-1:R1|PEPTIDE1,CHEM1,6:R3-1:R2$$$V2.0)	< 25
CC(=O)NCCCC[C@@H](NC(=O)[C@H](CCC(=O)O)NC(=O)[C@H](Cc1cccc2ccccc12)NC(=O)[C@H]1NC(=O)[C@H](CC(C)C)NC(=O)[C@H]([C@@H](C)O)NC(=O)[C@H](CC(=O)O)NC(=O)[C@H](CO)NC(=O)[C@H](CCCNC(=N)N)N(C)C(=O)c2ccccc2CSC1(C)C)C(N)=O [compound 89] (HELM PEPTIDE1{[meR].S.D.T.L.[Pen].[O=C([C@H](Cc1cccc2ccccc12)N[*:1])[*:2]].E.[dK].[am]}|PEPTIDE2{[ac]}|CHEM1{[O=C(c1ccccc1C[*:2])[*:1]]}$PEPTIDE1,PEPTIDE2,9:R3-1:R2|PEPTIDE1,CHEM1,1:R1-1:R1|PEPTIDE1,CHEM1,6:R3-1:R2$$$V2.0)	< 25
CC(=O)NCCCC[C@@H](NC(=O)[C@@H](CCC(=O)O)NC(=O)[C@H](Cc1ccc(O)cc1)NC(=O)[C@H]1NC(=O)[C@H](CC(C)C)NC(=O)[C@H]([C@@H](C)O)NC(=O)[C@H](CC(=O)O)NC(=O)[C@H](CO)NC(=O)[C@H](CCCNC(=N)N)N(C)C(=O)c2ccccc2CSC1(C)C)C(N)=O [compound 91] (HELM PEPTIDE1{[meR].S.D.T.L.[Pen].Y.[dE].[dK].[am]}|PEPTIDE2{[ac]}|CHEM1{[O=C(c1ccccc1C[*:2])[*:1]]}$PEPTIDE1,PEPTIDE2,9:R3-1:R2|PEPTIDE1,CHEM1,1:R1-1:R1|PEPTIDE1,CHEM1,6:R3-1:R2$$$V2.0)	< 25
CC(C)C[C@@H]1NC(=O)[C@H]([C@@H](C)O)NC(=O)[C@H](CC(=O)O)NC(=O)[C@H](CO)NC(=O)[C@H](CCCNC(=N)N)N(C)C(=O)c2ccccc2CSC(C)(C)[C@@H](C(=O)N[C@@H](Cc2c[nH]c3ccccc23)C(=O)N[C@@H](CCC(=O)O)C(=O)N[C@@H](CN)C(N)=O)NC1=O [compound 92] (HELM PEPTIDE1{[meR].S.D.T.L.[Pen].W.E.[NC[C@H](N[*:1])C(=O)[*:2]].[am]}|CHEM1{[O=C(c1ccccc1C[*:2])[*:1]]}$PEPTIDE1,CHEM1,1:R1-1:R1|PEPTIDE1,CHEM1,6:R3-1:R2$$$V2.0)	< 25
CC(C)C[C@@H]1NC(=O)[C@H]([C@@H](C)O)NC(=O)[C@H](CC(=O)O)NC(=O)[C@H](CO)NC(=O)[C@H](CCCNC(=N)N)N(C)C(=O)c2ccccc2CSC(C)(C)[C@@H](C(=O)N[C@@H](Cc2c[nH]c3ccccc23)C(=O)N[C@@H](CCC(=O)O)C(=O)N[C@@H](CCN)C(N)=O)NC1=O [compound 93] (HELM PEPTIDE1{[meR].S.D.T.L.[Pen].W.E.[Dab].[am]}|CHEM1{[O=C(c1ccccc1C[*:2])[*:1]]}$PEPTIDE1,CHEM1,1:R1-1:R1|PEPTIDE1,CHEM1,6:R3-1:R2$$$V2.0)	< 25
CC(C)C[C@@H]1NC(=O)[C@H]([C@@H](C)O)NC(=O)[C@H](CC(=O)O)NC(=O)[C@H](CO)NC(=O)[C@H](CCCNC(=N)N)N(C)C(=O)c2ccccc2CSC(C)(C)[C@@H](C(=O)N[C@@H](Cc2c[nH]c3ccccc23)C(=O)N[C@H](CCC(=O)O)C(=O)N[C@@H](CN)C(N)=O)NC1=O [compound 94] (HELM PEPTIDE1{[meR].S.D.T.L.[Pen].W.[dE].[NC[C@H](N[*:1])C(=O)[*:2]].[am]}|CHEM1{[O=C(c1ccccc1C[*:2])[*:1]]}$PEPTIDE1,CHEM1,1:R1-1:R1|PEPTIDE1,CHEM1,6:R3-1:R2$$$V2.0)	< 25
CC(C)C[C@@H]1NC(=O)[C@H]([C@@H](C)O)NC(=O)[C@H](CC(=O)O)NC(=O)[C@H](CO)NC(=O)[C@H](CCCNC(=N)N)N(C)C(=O)c2ccccc2CSC(C)(C)[C@@H](C(=O)N[C@@H](Cc2c[nH]c3ccccc23)C(=O)N[C@H](CCC(=O)O)C(=O)N[C@@H](CCN)C(N)=O)NC1=O [compound 95] (HELM PEPTIDE1{[meR].S.D.T.L.[Pen].W.[dE].[Dab].[am]}|CHEM1{[O=C(c1ccccc1C[*:2])[*:1]]}$PEPTIDE1,CHEM1,1:R1-1:R1|PEPTIDE1,CHEM1,6:R3-1:R2$$$V2.0)	< 25
CC(C)C[C@@H]1NC(=O)[C@H]([C@@H](C)O)NC(=O)[C@H](CC(=O)O)NC(=O)[C@H](CO)NC(=O)[C@H](CCCNC(=N)N)N(C)C(=O)c2ccccc2CSC(C)(C)[C@@H](C(=O)N[C@@H](Cc2c[nH]c3ccccc23)C(=O)N[C@@H](CCC(=O)O)C(N)=O)NC1=O [compound 96] (HELM PEPTIDE1{[meR].S.D.T.L.[Pen].W.E.[am]}|CHEM1{[O=C(c1ccccc1C[*:2])[*:1]]}$PEPTIDE1,CHEM1,1:R1-1:R1|PEPTIDE1,CHEM1,6:R3-1:R2$$$V2.0)	< 25

Same assay, conditions: thioether peptide dimers, Table 7; read-out: ELISA A4B7

Compound	IC50 [nM]
CC(C)C[C@@H]1NC(=O)[C@H]([C@@H](C)O)NC(=O)[C@H](CC(=O)O)NC(=O)[C@H](CO)NC(=O)[C@H](CCCNC(=N)N)N(C)C(=O)C(C)SC[C@@H](C(=O)N[C@@H](Cc2c[nH]c3ccccc23)C(=O)N[C@H](CCCCN)C(N)=O)NC1=O (single isomer, unassigned) [compound 144]	< 25
